What follows are compounds tested against T1, Phospholipase A2, membrane associated (Homo sapiens) (UniProt P14555) (assay: Inhibitory activity against human synovial fluid phospholipase A2 (HSF-PLA2).). Conditions: concentration not given here.
T1 sequence (whole entry): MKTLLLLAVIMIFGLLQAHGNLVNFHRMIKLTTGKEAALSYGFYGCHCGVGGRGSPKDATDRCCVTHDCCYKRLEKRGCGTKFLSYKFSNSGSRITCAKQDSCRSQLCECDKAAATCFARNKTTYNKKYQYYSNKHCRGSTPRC
Set-up: concentration or dose not given beside the values

Structure (SMILES)	inhibition [%]
CCCCCCCCCCS(=O)(=O)NC(CCCCCC)COCC(F)(F)F (stereo not given)	0
CCCCCCCCCCS(=O)(=O)N[C@H](CCCCCC)COP(=O)(O)OCCO (stereo in doubt; form 2)	45
CCCCCCCCCCS(=O)(=O)N[C@H](CCCCCC)COP(=O)(O)OCCO (stereo in doubt; form 1)	44
CCCCCCCCCCC(=O)NC(CCCCCC)COP(=O)(O)OCCNCc1ccccc1 (stereo not given)	28
CCCCCCCCCCS(=O)(=O)CC(CCCCCC)COP(=O)(O)OCCO (stereo not given)	29

Other lines, results leading:

inhibition [%]	Structure (SMILES)
36	CCCCCCCCCCS(=O)(=O)NC(CCCCCC)COP(=O)(O)OCCO (stereo not given)
0	CCCCCCCCCCS(=O)(=O)NC(CCCCCC)COP(=O)(O)OCCCC (stereo not given)
78	CCCCCCCCCCS(=O)(=O)N[C@H](CCCCCC)COP(=O)(O)OCCOCc1ccccc1
65	CCCCCCCCCCCC(=O)NC(CCCCCC)COP(=O)(O)OCCO (stereo not given)
40	CCCCCCCCCCS(=O)(=O)N[C@@H](CCCCCC)COP(=O)(O)OCCO

From ChEMBL document CHEMBL1129986, “Reliability of comparative molecular field analysis models: effects of data scaling and variable selection using a set of human synovial fluid phospholipase A2 inhibitors” (J Med Chem, 1997)
